Source: patent US7074761B1, “Peptides and production and use thereof” (Takeda Chemical Ind., Ltd., priority 1996, dated 2006)
Where a SMILES comes first, the peptide text is derived from it. Bridges are numbered along the chain shown (N, C = ends).

Key:
[1] = molecular target: T1, human SSTR5 (Homo sapiens, UniProt P35346); experiment: [125I]-somatostatin binding inhibition, SSTR5 CHO cell membrane fraction; conditions: 25° C., 60 minutes
T1 construct: expressed in transfected cells; host or cells: CHO(dhfr-) cells, clone SSTR5-32-4, plasmid pA-1-11-SSTR5 (vector pAKKO-111)
T1 sequence (P35346 whole entry): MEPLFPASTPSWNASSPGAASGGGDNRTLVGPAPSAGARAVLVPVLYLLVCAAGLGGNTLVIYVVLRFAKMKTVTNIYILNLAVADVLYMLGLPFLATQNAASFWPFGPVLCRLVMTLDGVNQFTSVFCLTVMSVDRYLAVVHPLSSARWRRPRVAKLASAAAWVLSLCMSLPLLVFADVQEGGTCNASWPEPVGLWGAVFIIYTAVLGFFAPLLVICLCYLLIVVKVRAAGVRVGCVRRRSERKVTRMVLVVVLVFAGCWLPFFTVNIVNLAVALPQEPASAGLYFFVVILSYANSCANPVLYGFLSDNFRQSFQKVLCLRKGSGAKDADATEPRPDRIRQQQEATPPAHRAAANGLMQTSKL
Protocol: CHO(dhfr^−) cells (1×10^6 cells) were cultured on HAM F12 medium containing 10% fetal bovine serum in a dish with a diameter of 8 cm for 24 hours. Into these cells was introduced 10 μg of the human SSTR5 cDNA expression plasmid pA-1-11-SSTR5 obtained as described above in (2) by the calcium phosphate method (Cell Phect Transfection Kit; Pharmacia). At 24 hours after transfection, the medium was exchanged for DMEM containing 10% dialyzed fetal bovine serum, and cells forming a colony on this medium (namely DHFR^+ cells) were selected. Further, the cells selected were treated by the limiting dilution method for cloning from a single cell, and the cells thus cloned were measured for their somatostatin receptor protein expression ability by the binding assay described in Reference Example 1 (3). In this manner, a cell line with high somatostatin-binding activity. SSTR5-32-4, was selected. […]
(§1) The membrane fractions prepared in Reference Example 6 were each diluted to 3 μg/ml with assay buffer. […] After filtration, the radioactivity of [^125I]-somatostatin remaining on the filter paper was measured. For each test substance, the binding inhibition percentage (%) was calculated according to the formula: PBM=(B−NSB)/(B0−NSB)×100 (where PBM: percent maximum binding; B: radioactivity when the test sample is added; B0: maximum bound radioactivity; NSB: non-specifically bound radioactivity). […]

[2] = molecular target: T2, human SSTR4 (Homo sapiens, UniProt P31391); experiment: [125I]-somatostatin binding inhibition, SSTR4 CHO cell membrane fraction; conditions: 25° C., 60 minutes
T2 construct: expressed in transfected cells; host or cells: CHO(dhfr-) cells, clone SSTR4-1-2, plasmid pA-1-11-SSTR4 (vector pAKKO-111)
T2 sequence (P31391 whole entry): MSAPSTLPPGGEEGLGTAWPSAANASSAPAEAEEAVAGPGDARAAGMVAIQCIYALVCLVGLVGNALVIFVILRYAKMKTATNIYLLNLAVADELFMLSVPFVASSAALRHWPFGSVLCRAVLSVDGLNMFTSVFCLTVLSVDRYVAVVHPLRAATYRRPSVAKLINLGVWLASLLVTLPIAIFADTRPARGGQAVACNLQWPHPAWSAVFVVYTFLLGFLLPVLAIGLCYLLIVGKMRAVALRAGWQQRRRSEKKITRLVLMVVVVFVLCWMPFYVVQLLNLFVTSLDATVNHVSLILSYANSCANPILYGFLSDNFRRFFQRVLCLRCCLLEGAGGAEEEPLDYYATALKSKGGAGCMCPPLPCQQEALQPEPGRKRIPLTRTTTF
Protocol: CHO(dhfr^−) cells (1×10^6 cells) were cultured on HAM F12 medium containing 10% fetal bovine serum in a dish with a diameter of 8 cm for 24 hours. Into these cells was introduced 10 μg of the human SSTR4 DNA expression plasmid pA-1-11-SSTR4 obtained as described above in (2) by the calcium phosphate method (Cell Phect Transfection Kit; Pharmacia). At 24 hours after transfection, the medium was exchanged for DMEM containing 10% dialyzed fetal bovine serum, and cells forming a colony on this medium (namely DHFR^+ cells) were selected. Further, the cells selected were treated by the limiting dilution method for cloning from a single cell, and the cells thus cloned were measured for their somatostatin receptor protein expression ability by the binding assay described in Reference Example 1 (3). In this manner, a cell line with high somatostatin-binding activity, SSTR4-1-2, was selected.
The human somatostatin receptor expressing CHO cell lines SSTR1-8-3, SSTR2-HS5-9, SSTR3-15-19, SSTR4-1-2 and SSTR5-32-4 (10^9 cells each) were respectively suspended in phosphate buffered physiological saline supplemented with 5 mM EDTA (PBS-EDTA) and centrifuged. To each cell pellet was added 10 ml of cell homogenation buffer (10 mM NaHCO3, 5 mM EDTA, pH=7.5), followed by homogenation with a Polytron homogenizer. The homogenate was centrifuged at 400×g for 15 minutes, and the supernatant obtained was further centrifuged at 100,000×g for 1 hour to give a membrane fraction as a precipitate. […]
as §1

[3] = test system: rat electroencephalogram; experiment: Effect on the rat electroencephalogram (sleep-wakefulness); format: in vivo
Protocol: Using male Jcl:Wistar rats (b. wt. 300˜350 g, approx.) under pentobarbital anesthesia (50 mg/kg, i.p.), the head was immobilized in a rat brain stereotaxic apparatus and the skull was drilled for placement of a screw electrode for cortical derivation and a stainless steel bipolar electrode for hippocampal derivation (A:−2.6, L:2.5, H:3.5, Pellegrino and Cushman Brain Atlas). A bipolar stainless steel needle electrode for recording an electromyogram was also inserted into the muscle layer in the dorsocervical region. All the electrodes were connected to a socket on the cranium and fixed with a dental cement. For administration of the test drug solution into the paracele, a 27-G stainless steel guide cannula was inserted in such a manner that the coordinates of its tip would be A:−0.4, L:1.7, H:1.7, and was fixed together with the EEG electrodes using a dental cement. A stilet was inserted into the guide cannula to prevent plugging of the cannula bore by tissue and blood. After postoperative recovery, the animal was submitted to the experiment. The rat was acclimatized to the experimental environment for at least 1 hour and either hCS-17 dissolved in phosphate buffered saline (PBS) or PBS was administered into the paracele via a 30-G infusion cannula. The electroencephalogram was recorded for 4 hours following administration of the test drug. The dose volume was 5 μl and the dose was 0.1 or 1 nmol. Control animals were similarly dosed with PBS.
The sleep-wakefulness was monitored by visual reading of the polygram and evaluated by frequency analysis and power analysis and classified into the following categories.
During this time, electromyographic activity is high.
(2) SWS1 (Shallow-and-Slow Wave Sleep) and SWS2 (Deep-and-Slow Wave Sleep):
The rat assumes a sleeping posture and delta waves (spindle waves) or high-amplitude, slow-waves appear in the cerebral cortex and high-amplitude, slow-waves, appear in the hippocampal derivation. During this period, electromyographic activity is decreased (SWS1) or absent (SWS2).
(3) PS (Paradoxical Sleep):
Alpha waves (low-amplitude, fast waves) appear in the cerebral cortex and theta waves (rhythmic waves) in the hippocampal derivation. During this period, electromyographic activity is absent.
Using 5˜6 rats per group, hCS-17 and PBS were respectively injected into the same rat to evaluate the relative effect on wakefulness. Analysis for statistical significance was made by paired t-test.

Row | IC50 [1] | IC50 [2] | SMILES | PS (paradoxical sleep) occupancy time vs PBS ([3]; 0.1 nmol into the paracele) | SWS1 (shallow-and-slow wave sleep) occupancy time vs PBS ([3]; 0.1 nmol into the paracele) | SWS2 (deep-and-slow wave sleep) occupancy time vs PBS ([3]; 0.1 nmol into the paracele) | animals showing flattening of the EEG patterns ([3]; 0.1 nmol into the paracele) | wakefulness time (percent occupancy of 4 hour EEG recording) vs PBS ([3]; 0.1 nmol into the paracele) | PS (paradoxical sleep) occupancy time vs PBS ([3]; 1 nmol into the paracele) | SWS1 (shallow-and-slow wave sleep) occupancy time vs PBS ([3]; 1 nmol into the paracele) | SWS2 (deep-and-slow wave sleep) occupancy time vs PBS ([3]; 1 nmol into the paracele) | animals showing flattening of the EEG patterns ([3]; 1 nmol into the paracele) | duration of flattening of cortical and hippocampal EEG patterns ([3]; immediately after administration into the paracele)
1 | 0.6 nM | 0.6 nM | CSCC[C@H](N)C(=O)N1CCC[C@H]1C(=O)N[C@H]1CSSC[C@@H](C(=O)N[C@@H](CCCCN)C(=O)O)NC(=O)[C@H](CO)NC(=O)[C@H](CO)NC(=O)[C@H](Cc2ccccc2)NC(=O)[C@H]([C@@H](C)O)NC(=O)[C@H](CCCCN)NC(=O)[C@H](Cc2c[nH]c3ccccc23)NC(=O)[C@H](Cc2ccccc2)NC(=O)[C@H](Cc2ccccc2)NC(=O)[C@H](CC(N)=O)NC(=O)[C@H](CCCNC(=N)N)NC1=O [hCS-15] (H-MPCRNFFWKTFSSCK-OH; disulfide 3-14; N-terminus and C-terminus assumed) | – | – | – | – | – | – | – | – | – | –
2 | – | 0.5 nM | CSCC[C@H](NC(=O)[C@H](CCCNC(=N)N)NC(=O)[C@@H](N)CC(=O)O)C(=O)N1CCC[C@H]1C(=O)N[C@H]1CSSC[C@@H](C(=O)N[C@@H](CCCCN)C(=O)O)NC(=O)[C@H](CO)NC(=O)[C@H](CO)NC(=O)[C@H](Cc2ccccc2)NC(=O)[C@H]([C@@H](C)O)NC(=O)[C@H](CCCCN)NC(=O)[C@H](Cc2c[nH]c3ccccc23)NC(=O)[C@H](Cc2ccccc2)NC(=O)[C@H](Cc2ccccc2)NC(=O)[C@H](CC(N)=O)NC(=O)[C@H](CCCNC(=N)N)NC1=O [hCS-17] | significantly decreased | tendency toward decrease | toward increase | 2 out of 5 | not different from the PBS control group | decrease | significant decrease | increase | 4 out of 6 | 3˜5 minutes
